Earlier results as cited in US20240156891A1, “EXTRACTS OF SALVIA MILTIORRHIZA AND/OR PONCIRUS TRIFOLIATA FOR INHIBITING BODY WEIGHT GAIN” (Taipei Medical University, priority 2022, published 2024).

Settings: typical values of solvents

Row | SMILES | log Kow
1 | CC(C)=O [acetone] | −0.24
2 | CCCCCC [n-hexane] | 3.17~3.94
3 | CO [methanol] | −0.82~−0.66
4 | CCOC(C)=O [ethyl acetate] | 0.66~0.73
